Measurements reported in article PMC7577153, “Identification of Small-Molecule Inhibitors Targeting Porphyromonas gingivalis Interspecies Adherence and Determination of Their In Vitro and In Vivo Efficacies” (Antimicrobial Agents and Chemotherapy, 2020).
pIC50: −log10 of the molar value. Like-named read-outs stand apart in the source and are kept apart here.

Legend:
[1] = test system: P. gingivalis adherence to S. gordonii; experiment: organism not typed; format: cell-based, Porphyromonas gingivalis; settings: for dose-dependent inhibition of P. gingivalis adherence and biofilm formation: 5, 10, 15, 25, and 40 μM; for inhibition at 40 µM: read-out: inhibition of P. gingivalis adherence to S. gordonii and biofilm formation
Method: Using the two species biofilm model described by Patil et al. ([19]), the in vitro effectiveness of the compounds was determined by their ability to inhibit P. gingivalis adherence to S. gordonii and subsequent biofilm formation at an initial concentration of 40 μM.
To quantify P. gingivalis adherence to S. gordonii, a two-species biofilm model was employed as previously described ([19], [33]). Briefly, 20 ml of an overnight culture of S. gordonii was centrifuged at 5600 × g (MIKRO 220R, Hettich Zentrifugen) for 10 min, and the harvested cells were washed with phosphate-buffered saline (PBS; 10 mM Na2HPO4, […], […], and 2.7 mM KCl [pH 7.2]). To label S. gordonii, the cell pellet was suspended in 1 ml of PBS containing 20 μl of 5 mg/ml of hexidium iodide (Molecular Probes; Eugene, OR) and incubated in the dark for 15 min at room temperature with gentle shaking. The labeled cells were than centrifuged at 5600 × g for 5 min and washed twice with PBS. Finally, the cells were suspended in PBS to a final optical density at 600 nm (OD600) of 0.6, and 1 ml of labeled S. gordonii cells was added to each well of a 12-well microtiter plate (Greiner Bio-one, Monroe, NC) containing a circular coverslip (Fisher Scientific, Hampton, NH). Plates were incubated at 37°C for 24 h under anaerobic conditions on a rotary shaker. On the following day, cells from a 10-ml overnight P. gingivalis culture were harvested as described above and fluorescent labeling was performed by incubating the cells in 1 ml PBS containing 20 μl of 5(6)-carboxyfluorescein N-hydroxysuccinimide ester (4 mg/ml) (Thermo Fisher, Waltham, MA) for 30 min in the dark at room temperature with gentle shaking. After being washed two times with PBS, the labeled cells were suspended in PBS at a final OD600 of 0.4. While this reaction was carried out, unattached S. gordonii cells were removed from each well by aspiration, and subsequently, 1 ml of labeled P. gingivalis cells alone or with the desired concentration of the compounds to be tested was added to each well of the microtiter plates. Plates were incubated at 37°C for 24 h under anaerobic conditions. The compounds that were tested were initially dissolved in dimethyl sulfoxide (DMSO) to generate a 1,000× stock solution and subsequently diluted in the cell suspensions to obtain the working concentration. For the control wells, DMSO without a test compound was added to a final concentration of 0.1% in order to maintain a constant DMSO concentration in all wells.
Unbound P. gingivalis cells were removed from each well by aspiration, and the coverslips were washed twice with 5 ml of PBS. Biofilms were then fixed with 4% paraformaldehyde for 5 min in the dark and washed two times with 5 ml of PBS. The coverslips were mounted on a glass slide (Sigma-Aldrich) containing a drop of Prolong gold anti-fade agent (Molecular Probes, Eugene, OR) and sealed with transparent nail polish.
Visualization of the biofilms was carried out by laser scanning confocal microscopy using an SP8 confocal microscope (Leica Microsystems, Inc., Buffalo Grove, IL), with the laser source settings at 488 nm and 552 nm to visualize P. gingivalis and S. gordonii, respectively. Images were collected using a Z plane scan for a depth of 25 μm using a Z step thickness of 0.7 μm. Background noise was reduced using the software that was supplied with the Leica SP8 microscope. Three-dimensional reconstruction of the Z plane scans and quantification of the red and green channel fluorescence were performed using Volocity 6.3 image analysis software (PerkinElmer, Waltham, MA).

P. gingivalis virulence = experiment: murine model of periodontitis (alveolar bone loss); format: in vivo, BALB/c/ByJ mice; settings: for alveolar bone loss relative to sham-infected mice / alveolar bone loss versus infected untreated mice: mice infected with S. gordonii and P. gingivalis, compound 40 μM; for alveolar bone loss versus infected untreated mice: P < 0.001
Method: The in vivo activity of compounds N7, N17, and V8 was determined using a murine model of periodontitis as described by Deap et al. ([16]). […] Therefore, P. gingivalis virulence was assessed by alveolar bone loss, which was determined by measuring the distance from the alveolar bone crest (ABC) to the cemento enamel junction (CEJ).
The protocol used in this study (protocol 16486) was approved by the Institutional Animal Care and Use Committee at the University of Louisville under federal guidelines for the use and care of laboratory animals. Ten-week-old BALB/c/ByJ specific-pathogen-free mice were obtained from Jackson Laboratory (Bar Harbor, ME) and housed in the University of Louisville Research Resource Center animal facility. During the entire course of the study, mice were fed with Lab Diet 5001 (Purina Mills, LLC, Gray Summit, MO).
Oral infection of the mice was carried out essentially as described by Deap et al. ([18]). Prior to infection, mice were subjected to a combined antibiotic treatment for 10 days by providing animals with water ad libitum containing 800 μg/ml sulfamethoxazole (MP Biomedical, Solon, OH) and 400 μg/ml trimethoprim (Sigma, St. Louis, MO). Four days after the conclusion of the antibiotic treatment, mice were infected by oral gavage with 10^9 CFU of S. gordonii suspended in 2% carboxymethylcellulose (CMC; MP Biomedical) in sterile PBS using a 2.25-mm feeding needle (Popper and Son, Inc., New Hyde Park, NY). Infections were conducted every other day for a period of 10 days. Subsequently, mice were infected with 10^9 CFU P. gingivalis suspended in 2% CMC in PBS alone or in 2% CMC in PBS containing the small-molecule inhibitors every other day for 10 days. After the last infection with P. gingivalis, the mice were rested for 47 days and then euthanized by carbon dioxide asphyxiation.
To obtain the mouse skulls, the heads were removed and autoclaved for 15 min to remove flesh and musculature. The defleshed skulls were then immersed in 3% hydrogen peroxide overnight at room temperature to remove any remaining flesh. The skulls were submerged in deionized water to remove residual hydrogen peroxide, soaked in 1% bleach solution for 30 sec, sonicated at 14 V for 1 min, and washed again with deionized water. Samples were brushed using toothpaste, sonicated again in 1% bleach for an additional 30 sec at 14 V, and washed with water. The cleaned skulls were stained by immersion in 1% methylene blue for 15 sec, followed by washing with water until the excess dye was removed.
To measure alveolar bone loss, a dissecting microscope fitted with a video imaging marker measurement system (model VIA-170K; Fryer) was used. Bone loss was determined by measuring the distance between the alveolar bone crest (ABC) and cemento-enamel junction (CEJ) at eight sites on the buccal sides of both left and right maxillary molars. […] Data were analyzed using one-way analysis of variance (ANOVA; Graph Pad Prism, La Jolla, CA), and a pairwise parametric analysis of variance using a Bonferroni multiple-comparison posttest was used to determine the statistical difference among the individual mouse groups. A P value of ≤0.05 was considered statistically significant.

HL60 cells = settings: 18 h
Method: The mouse macrophage cell line J774A.1 was grown in Dulbecco’s modified Eagle medium (DMEM) (Thermo Fisher Scientific, Waltham, MA) supplemented with 4.5 g/ml glucose, 10% fetal bovine serum (FBS), and 100 U/ml penicillin-streptomycin (Sigma-Aldrich, St. Louis, MO). HL60 (ATCC CCL240) cells were obtained from the American Type Culture Collection and cultured in Iscove’s modified Dulbecco’s medium (Sigma-Aldrich) supplemented with 20% fetal bovine serum (FBS) (Sigma-Aldrich).
The apoptotic activity of the compounds was determined using the phycoerythrin (PE) annexin V/dead cell apoptosis kit with Sytox green for flow cytometry (Invitrogen, Carlsbad, CA). Cells were grown in 12-well flat-bottom microtiter plates at an initial density 2 × 10^5 cells in 1.5-ml medium per well for 24 h. Following the incubation period, spent medium was replaced with fresh medium containing the desired concentration of the test compound and incubated for another 18 h. After trypsinization, cells were harvested by centrifuging at 250 × g for 4 min, and the cell pellet was suspended in 100 μl of binding buffer supplemented with 1 μl Sytox and 5 μl annexin V, followed by incubation at 37°C for 15 min. Samples were then diluted by adding 400-μl binding buffer, and flow cytometry was performed using a FACScalibur flow cytometer (Becton, Dickinson, Franklin Lakes, NJ), measuring the fluorescence emissions at 530 nm and 575 nm.

Compound	dose-dependent inhibition of P. gingivalis adherence and biofilm formation [1]	pIC50 ([1]; Porphyromonas gingivalis, read-out: 50% inhibitory concentration (IC50) of P. gingivalis adherence in vitro)	inhibition at 40 µM [1] [%]	alveolar bone loss relative to sham-infected mice (P. gingivalis virulence)	alveolar bone loss versus infected untreated mice (P. gingivalis virulence)	Early apoptosis (%) (HL60 cells; HL60, 5 μM)	Late apoptosis/necrosis (%) (HL60 cells; HL60, 5 μM)	Live cells (%) (HL60 cells; HL60, 5 μM)	Early apoptosis (%) (HL60 cells; HL60, 20 μM)	Late apoptosis/necrosis (%) (HL60 cells; HL60, 20 μM)	Live cells (%) (HL60 cells; HL60, 20 μM)	Early apoptosis (%) (HL60 cells; HL60, 40 μM)	Late apoptosis/necrosis (%) (HL60 cells; HL60, 40 μM)	Live cells (%) (HL60 cells; HL60, 40 μM)	overt signs of distress or toxicity in treated mice (P. gingivalis virulence; transient exposure (∼20 min) during infection)
O=C(Nc1ccccc1O)c1cccc(N2C(=O)c3ccc(C(=O)Nc4ccccc4O)cc3C2=O)c1 [N17, N-(2-hydroxyphenyl)-2-{3-[(2-hydroxyphenyl)carbamoyl]phenyl}-1,3-dioxo-2,3-dihydro-1H-isoindole-5-carboxamide]	inhibited P. gingivalis adherence and biofilm formation in a dose-dependent manner	~4.74	60	not significantly different from sham-infected animals	significant reduction in alveolar bone loss	2.7	4.7	91.3	2.2	6.0	90.3	2.3	6.3	91.6	
Cl.N=c1n(CCN2CCCCC2)c2ccccc2n1CC(O)COc1ccc(Cl)cc1 (centres unmarked) [N7, 1-(4-chlorophenoxy)-3-{2-imino-3-[2-(piperidin-1-yl)ethyl]-2,3-dihydro-1H-1,3-benzodiazol-1-yl}propan-2-ol hydrochloride]	inhibited P. gingivalis adherence and biofilm formation in a dose-dependent manner		40	modest increase in bone loss relative to the sham-infected group	significant reduction in alveolar bone loss	3.6	7.8	87.4	20.9	43.9	27.3	7.7	70.8	18.9	did not exhibit any overt signs of distress or toxicity
Cc1cc([C@H]2CCCN(CC(=O)NC3(C#N)CCCC3)C2)n[nH]1 [V8, N-(1-cyanocyclopentyl)-2-[3-(5-methyl-1H-pyrazol-3-yl)piperidin-1-yl] acetamide]	inhibited P. gingivalis adherence and biofilm formation in a dose-dependent manner		≥ 40	modest increase in bone loss relative to the sham-infected group	significant reduction in alveolar bone loss	2.9	5.6	91.8	3.7	5.0	91.3	2.4	6.7	88.4	
